Source: article PMC11091889, “Silver Organometallics that are Highly Potent Thioredoxin and Glutathione Reductase Inhibitors: Exploring the Correlations of Solution Chemistry with the Strong Antibacterial Effects” (ACS Infectious Diseases, 2024)

Key:
[1] = system: E. coli (DSM1116, ATCC 9637); test: microbe, parasite or virus in culture; format: cell-based, Escherichia coli; settings: for EC50 / MIC E. coli: mean ± standard error; for EC50 / MIC E. coli / MIC E. coli (value in brackets): n = 3, MHB; for MIC E. coli / MIC E. coli (value in brackets): 22 h; for MIC E. coli DSM 1116 in MHB + tryptone: Müller-Hinton Broth with tryptone (17 g/L); for MIC E. coli DSM 1116 in MHB + tryptone / MIC E. coli DSM 1116 in MHB + yeast extract / MIC E. coli DSM 1116 in MHB: ± SE; for MIC E. coli DSM 1116 in MHB + yeast extract: Müller-Hinton Broth with yeast extract (3 g/L); for MIC E. coli DSM 1116 in MHB: Müller-Hinton Broth without additive
In short: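 Escherichia coli DSM1116 (ATCC 9637) was tested by broth microdilution in 96-well plates in duplicate, with compounds serially diluted from 64 to 1 μg/mL. Inocula of 2–8 × 10^5 CFU/mL were used in MHB (21 g/L Müller Hinton broth, pH 7.4), either alone or supplemented with tryptone (17 g/L) or yeast extract (3 g/L). After 22 h at 37 °C, absorbance at 600 nm was read. MIC and EC50 were obtained by curve fitting in Sigma Plot from three independent experiments, and ciprofloxacin served as the positive control.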

[2] = system: E. faecium (DSM 20477, ATCC 19434); test: Broth microdilution antibacterial assay; format: cell-based, Enterococcus faecium; settings: n = 3, TSY; for MIC E. faecium / EC50: mean ± standard error; for MIC E. faecium / MIC E. faecium (value in brackets): 22 h; for EC50: read-out: EC50 E. faecium
In short: (§1)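 Broth microdilution used 2–8 × 10^5 CFU/mL inocula, with compounds serially diluted 64 to 1 μg/mL and incubated 22 h at 37 °C, read at 600 nm. A. baumannii, K. pneumoniae and P. aeruginosa were grown in MHB pH 7.4; E. faecium was grown in TSY pH 7.0–7.2. MIC and EC50 were obtained by curve fitting from three independent experiments.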

[3] = system: P. aeruginosa PA7 (DSM 24068); test: microbe, parasite or virus in culture; format: cell-based, Pseudomonas aeruginosa; settings: n = 3, MHB; for MIC P. aeruginosa / EC50: mean ± standard error; for MIC P. aeruginosa / MIC P. aeruginosa (value in brackets): 22 h; for EC50: read-out: EC50 P. aeruginosa
In short: as §1

[4] = system: P. aeruginosa (PA 14) biofilm; test: Inhibition of biofilm formation, crystal violet staining; format: cell-based, Pseudomonas aeruginosa; settings: for smallest active concentration for biofilm inhibition: concentration at which the % inhibition was found; for biofilm inhibition: ± SD, n = 4, at the respective smallest active concentration, 24 h
Source text: Silver and its complexes can strongly affect the growth of biofilms.[56]−[58] In view of the promising activity against Gram-negative bacteria as mentioned above, we evaluated the inhibiting effect of the silver complexes on biofilm production by P. aeruginosa by a method based on crystal violet staining (Table 4 and Figure S14). Complexes 3a–c and 4a–c were selected for the test based on the results of solubility, stability, and antibacterial screening. […] The lower activity of 3c might be explained by its lower kinetic solubility in the aqueous environment (see Figure 4).
The antibiofilm activity was determined according to a literature method.[73] A 1 mL aliquot of P. aeruginosa (PA 14) was taken from −20 °C stock, incubated in 25 mL LB medium (Luria–Bertani Broth) in a 250 mL flask, and kept at 37 °C at 100 rpm overnight. The optical density at 600 nm (OD600) of the culture solution was adjusted to match the turbidity of a 0.1 McFarland standard in M63 medium.[74] Selected compounds were mixed with 150 μL of bacterial solution in U-bottom 96 well plates to the final respective concentrations (25–0.2 μg/mL). The plates were further incubated at 37 °C for 24 h while shaking at 150 rpm. Afterward, the plates were rinsed once with 150 μL of PBS buffer, and the biofilms were stained using 150 μL of crystal violet (0.1%) staining at room temperature for 15 min and then rinsed once with PBS buffer. After rinsing, 150 μL of ethanol (95%) was added, and the absorbance was quantified using a plate reader (Synergy 2, BioTek, Santa Clara, USA) at 550 nm. The resulting antibiofilm activity is presented as percentage of inhibition at the respective smallest active concentration in μM with standard deviation (SD) of two repeats with duplicates. Myxovalargin A and DMSO (2.5%) were used as the positive and negative controls, respectively.

[5] = target: T1, glutathione reductase (GR) from baker's yeast (Saccharomyces cerevisiae, UniProt P41921); test: GR inhibition assay (DTNB reduction); format: biochemical; settings: ± standard deviation, n = 3, 75 min preincubation
T1 construct: purchased Sigma-Aldrich
T1 sequence (P41921 17-483 limits assumed): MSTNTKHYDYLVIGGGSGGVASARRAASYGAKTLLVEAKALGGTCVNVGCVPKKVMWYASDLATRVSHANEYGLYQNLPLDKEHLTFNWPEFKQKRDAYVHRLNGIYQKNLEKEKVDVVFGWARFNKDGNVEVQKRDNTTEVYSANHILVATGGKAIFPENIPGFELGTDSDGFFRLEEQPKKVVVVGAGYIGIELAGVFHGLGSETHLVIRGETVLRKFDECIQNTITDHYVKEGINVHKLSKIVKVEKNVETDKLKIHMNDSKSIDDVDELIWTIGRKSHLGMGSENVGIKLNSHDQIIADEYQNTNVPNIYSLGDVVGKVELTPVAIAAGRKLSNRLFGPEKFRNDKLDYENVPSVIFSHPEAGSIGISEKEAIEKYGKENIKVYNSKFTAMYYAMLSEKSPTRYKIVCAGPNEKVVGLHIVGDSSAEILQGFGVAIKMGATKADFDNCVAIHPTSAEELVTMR
Protocol: (§2) The inhibition of purified E. coli thioredoxin reductase (TrxR) and glutathione reductase (GR) from both E. coli and baker’s yeast was determined according to a previously applied procedure.[59],[60]
(§3) The TrxR (E. coli) and GR (baker’s yeast and E. coli) inhibition assays were performed according to previously published procedures.[62],[75] The assays are partly based on the procedure developed by Lu et al.[60] and make use of the reduction of 5,5′-dithiobis(2-nitrobenzoic acid) (DTNB). Solutions of E. coli TrxR (35.4 U/mL) and E. coli thioredoxin (Trx) (156 μg/mL) (both purchased from Sigma-Aldrich) or baker’s yeast GR (0,08 U/mL, Sigma-Aldrich) or E. coli GR (4.2 U/ml, Antibodies online) and GSSG (0.28 mM, Sigma-Aldrich) in distilled water were prepared, as were fresh 2 mM stock solutions of the test compounds in DMSO. Then, solutions with several concentrations of the test compounds in DMSO were prepared, and 35 μL of each solution was diluted with 965 μL of TE buffer (Tris–HCl 50 mM, EDTA 1 mM, pH 7.5). These solutions (20 μL) or TE buffer without the test compounds (20 μL, as control) were mixed with the TrxR or GR solutions (10 μL), the Trx or GSSG solutions (10 μL), and a solution of NADPH (200 μM) in TE buffer (100 μL) in a well on a 96-well plate. As a blank solution, 200 μM NADPH in TE buffer (100 μL) mixed with a DMSO/buffer mixture (40 μL) was used (final concentrations of DMSO: 0.5% v/v). The plate was incubated for 75 min at 25 °C with moderate shaking. After incubation, 100 μL of a reaction mixture (TE buffer containing 200 μM NADPH and 5 mM DTNB) was added to each well to initiate the reaction. After thorough mixing, the formation of 5-TNB was monitored by a microplate reader at 405 nm in 35 s intervals (10 measurements). The values were corrected by subtraction of the blank solution absorption values. The increase in the concentration of 5-TNB followed a linear trend (r^2 ≥ 0.990), and the enzymatic activities were calculated as the gradients (increase in absorbance per second) thereof. […] The inhibition is presented as the mean IC50 values and standard deviations obtained in three independent experiments.

[6] = target: E. coli thioredoxin reductase (TrxR) (Escherichia coli, UniProt P0A9P4); settings: read-out: IC50 TrxR from E. coli; ± standard deviation, n = 3, 75 min preincubation
Sequence of E. coli thioredoxin reductase (TrxR) (P0A9P4 whole entry): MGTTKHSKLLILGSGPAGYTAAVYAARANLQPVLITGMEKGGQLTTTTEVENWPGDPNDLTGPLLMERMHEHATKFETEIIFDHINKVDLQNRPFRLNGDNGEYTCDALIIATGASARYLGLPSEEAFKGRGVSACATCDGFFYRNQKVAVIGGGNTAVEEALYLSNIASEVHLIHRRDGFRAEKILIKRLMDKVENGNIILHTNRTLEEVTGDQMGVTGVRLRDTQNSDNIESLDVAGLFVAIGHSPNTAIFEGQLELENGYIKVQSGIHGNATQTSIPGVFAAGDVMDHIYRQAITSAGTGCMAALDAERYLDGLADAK
Protocol: as §2, §3

Row | Compound | EC50 [1] | MIC E. coli [1] | MIC E. coli (value in brackets) [1] | MIC E. faecium [2] | EC50 [2] | MIC E. faecium (value in brackets) [2] | MIC P. aeruginosa [3] | EC50 [3] | MIC P. aeruginosa (value in brackets) [3] | smallest active concentration for biofilm inhibition [4] | biofilm inhibition [4] | MIC E. coli DSM 1116 in MHB + tryptone [1] | MIC E. coli DSM 1116 in MHB + yeast extract [1] | MIC E. coli DSM 1116 in MHB [1] | IC50 [5] | IC50 [6]
1 | COCCn1[c](=[Ag][I])n(Cc2ccccn2)c2ccccc21 [4c, Iodido (1-(2-Methoxyethyl)-3-(pyridin-2-ylmethyl)-benzimidazol-2-ylidene) Silver(I)] | 14.4 ± 2.7 µM | 21.2 ± 5.3 µM | 11 µg/mL | > 128 µM | > 128 µM | > 64 µg/mL | 18.6 ± 7.0 µM | 4.9 ± 1.2 µM | 9 µg/mL | 6.2 µM | 66 ± 6% | – | – | – | – | –
2 | CC(C)n1[c](=[Ag][Cl])n(Cc2ccccn2)c2ccccc21 [3a, Chlorido (1-Isopropyl-3-(pyridin-2-ylmethyl)-benzimidazol-2-ylidene) Silver(I)] | 35.3 ± 1.1 µM | 40.5 ± 0.0 µM | 16 µg/mL | 162 ± 0.0 µM | 139 ± 0.4 µM | 64 µg/mL | 81.1 ± 0.0 µM | 39.1 ± 8.8 µM | 32 µg/mL | 7.9 µM | 71 ± 4% | 162.2 ± 0.0 µM | 162.2 ± 0.0 µM | 40.5 ± 0.0 µM | 0.044 ± 0.004 µM | 0.103 ± 0.008 µM
3 | CC(C)n1[c](=[Ag][Br])n(Cc2ccccn2)c2ccccc21 [3b, Bromido (1-Isopropyl-3-(pyridin-2-ylmethyl)-benzimidazol-2-ylidene) Silver(I)] | 28.7 ± 3.6 µM | 36.4 ± 0.0 µM | 16 µg/mL | 146 ± 0.0 µM | 123 ± 0.4 µM | 64 µg/mL | 60.7 ± 12.1 µM | 30 ± 6.9 µM | 26 µg/mL | 7.1 µM | 74 ± 5% | 145.7 ± 0.0 µM | 121.5 ± 24.3 µM | 36.4 ± 0.0 µM | 0.041 ± 0.006 µM | 0.092 ± 0.008 µM
4 | CC(C)n1[c](=[Ag][I])n(Cc2ccccn2)c2ccccc21 [3c, Iodido (1-Isopropyl-3-(pyridin-2-ylmethyl)-benzimidazol-2-ylidene) Silver(I)] | 8.8 ± 2.5 µM | 11.0 ± 2.7 µM | 5 µg/mL | 65.8 ± 0.0 µM | 60.9 ± 0.1 µM | 32 µg/mL | 11.0 ± 2.7 µM | 6 ± 1 µM | 5 µg/mL | 13.0 µM | 55 ± 19% | 54.9 ± 11.0 µM | 43.9 ± 11.0 µM | 11.0 ± 2.7 µM | 0.049 ± 0.004 µM | 0.122 ± 0.015 µM
